Assay results as given in ChEMBL document CHEMBL4043212, “Design, synthesis and biological evaluation of 1,3-diphenylbenzo[f][1,7]naphthyrdines” (2017).

How the values were obtained:
MDA-MB-231 = assay: Cytotoxicity against human MDA-MB-231 cells assessed as inhibition of cell growth incubated for 72 hrs by SRB assay; assay type: functional
NCI-H23 = assay: Cytotoxicity against human NCI-H23 cells assessed as inhibition of cell growth incubated for 72 hrs by SRB assay; assay type: functional
PC-3 = assay: Cytotoxicity against human PC3 cells assessed as inhibition of cell growth incubated for 72 hrs by SRB assay; assay type: functional
NUGC-3 = assay: Cytotoxicity against human NUGC3 cells assessed as inhibition of cell growth incubated for 72 hrs by SRB assay; assay type: functional
ACHN = assay: Cytotoxicity against human ACHN cells assessed as inhibition of cell growth incubated for 72 hrs by SRB assay; assay type: functional
HCT-15 = assay: Cytotoxicity against human HCT15 cells assessed as inhibition of cell growth incubated for 72 hrs by SRB assay; assay type: functional
[1] = target: DNA topoisomerase 2-alpha (Homo sapiens) (UniProt P11388); assay: Inhibition of human topoisomerase-2 alpha assessed as reduction in conversion of super coiled plasmid DNA to relaxed DNA at 100 uM using supercoiled pBR322 DNA as substrate after 30 mins by ethidium bromide staining based agarose gel electrophoresis method relative to control
Chain of DNA topoisomerase 2-alpha (Homo sapiens) (P11388 whole entry): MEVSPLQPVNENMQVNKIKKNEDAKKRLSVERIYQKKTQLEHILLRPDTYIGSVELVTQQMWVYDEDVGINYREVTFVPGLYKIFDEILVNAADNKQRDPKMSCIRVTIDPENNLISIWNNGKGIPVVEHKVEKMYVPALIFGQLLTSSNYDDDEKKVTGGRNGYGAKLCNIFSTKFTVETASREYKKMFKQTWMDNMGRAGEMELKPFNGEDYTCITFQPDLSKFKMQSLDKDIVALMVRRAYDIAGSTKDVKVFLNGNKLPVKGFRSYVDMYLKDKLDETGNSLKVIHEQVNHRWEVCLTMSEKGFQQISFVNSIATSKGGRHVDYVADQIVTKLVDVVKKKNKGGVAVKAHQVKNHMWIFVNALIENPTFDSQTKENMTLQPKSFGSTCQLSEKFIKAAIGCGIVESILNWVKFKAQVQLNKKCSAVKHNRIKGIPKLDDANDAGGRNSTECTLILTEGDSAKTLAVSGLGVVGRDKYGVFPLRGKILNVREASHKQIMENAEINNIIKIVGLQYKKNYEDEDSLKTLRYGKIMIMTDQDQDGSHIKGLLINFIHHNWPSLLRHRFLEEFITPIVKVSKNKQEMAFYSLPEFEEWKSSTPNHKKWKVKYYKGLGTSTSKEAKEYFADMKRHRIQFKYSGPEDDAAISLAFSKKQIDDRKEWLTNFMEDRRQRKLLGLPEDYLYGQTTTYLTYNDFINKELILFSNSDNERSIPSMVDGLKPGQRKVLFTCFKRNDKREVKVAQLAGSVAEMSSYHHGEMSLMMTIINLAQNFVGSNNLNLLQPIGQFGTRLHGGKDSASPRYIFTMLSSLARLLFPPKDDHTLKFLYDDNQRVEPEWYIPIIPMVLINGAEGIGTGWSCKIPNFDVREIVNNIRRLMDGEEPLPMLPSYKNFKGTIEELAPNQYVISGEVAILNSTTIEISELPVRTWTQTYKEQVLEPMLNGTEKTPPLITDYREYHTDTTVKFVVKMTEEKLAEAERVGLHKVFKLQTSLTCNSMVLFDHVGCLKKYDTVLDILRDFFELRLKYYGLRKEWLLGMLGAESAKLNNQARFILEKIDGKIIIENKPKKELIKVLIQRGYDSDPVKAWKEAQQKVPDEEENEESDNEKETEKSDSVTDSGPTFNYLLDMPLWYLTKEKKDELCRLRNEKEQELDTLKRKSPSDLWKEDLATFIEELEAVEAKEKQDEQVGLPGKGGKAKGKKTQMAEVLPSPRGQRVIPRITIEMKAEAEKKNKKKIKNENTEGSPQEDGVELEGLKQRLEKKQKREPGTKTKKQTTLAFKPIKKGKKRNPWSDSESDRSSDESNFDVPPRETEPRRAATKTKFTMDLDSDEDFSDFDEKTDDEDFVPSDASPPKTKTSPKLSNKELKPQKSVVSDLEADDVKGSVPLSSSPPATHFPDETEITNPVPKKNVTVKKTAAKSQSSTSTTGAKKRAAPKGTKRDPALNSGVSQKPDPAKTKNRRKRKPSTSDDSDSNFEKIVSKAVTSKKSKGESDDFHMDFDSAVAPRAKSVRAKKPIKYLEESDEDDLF

[2] = target: DNA topoisomerase 2-alpha (Homo sapiens) (UniProt P11388); assay: Potency index, ratio of inhibitory activity of etoposide to test compound for inhibition of human topoisomerase-2 alpha at 100 uM using supercoiled pBR322 DNA as substrate after 30 mins by ethidium bromide staining based agarose gel electrophoresis method relative to control
[3] = target: DNA topoisomerase 2-alpha (Homo sapiens) (UniProt P11388); assay: Potency index, ratio of inhibitory activity of etoposide to test compound for inhibition of human topoisomerase-2 alpha at 20 uM using supercoiled pBR322 DNA as substrate after 30 mins by ethidium bromide staining based agarose gel electrophoresis method relative to control
[4] = target: DNA topoisomerase 2-alpha (Homo sapiens) (UniProt P11388); assay: Inhibition of human topoisomerase-2 alpha assessed as reduction in conversion of super coiled plasmid DNA to relaxed DNA at 20 uM using supercoiled pBR322 DNA as substrate after 30 mins by ethidium bromide staining based agarose gel electrophoresis method relative to control

SMILES	GI50 (MDA-MB-231; Homo sapiens, MDA-MB-231, 72 h) [µM]	GI50 (NCI-H23; Homo sapiens, NCI-H23, 72 h) [µM]	GI50 (PC-3; Homo sapiens, PC-3, 72 h) [µM]	GI50 (NUGC-3; Homo sapiens, NUGC-3, 72 h) [µM]	GI50 (ACHN; Homo sapiens, ACHN, 72 h) [µM]	GI50 (HCT-15; Homo sapiens, HCT-15, 72 h) [µM]	inhibition [1] [%]	GI50 (MDA-MB-231) [µM]	GI50 (NCI-H23) [µM]	GI50 (PC-3) [µM]	GI50 (NUGC-3) [µM]	GI50 (ACHN) [µM]	GI50 (HCT-15) [µM]	Ratio [2]	Ratio [3]	inhibition [4] [%]
CCn1cc(-c2cc(-c3ccc(OC)cc3)c3c(cnc4ccccc43)n2)c2ccccc21	3.04	2.07	6.15	3.03	5.61	4.88	–	–	–	–	–	–	–	–	–	–
COc1ccc(-c2cc(-c3cccc(C#N)c3)nc3cnc4ccccc4c23)cc1	1.79	1.89	3.15	2.03	3.86	1.79	0.2	–	–	–	–	–	–	–	–	–
COc1ccc(-c2cc(-c3ccc([N+](=O)[O-])cc3)nc3cnc4ccccc4c23)cc1 [listing 1 of 2 here]	–	–	–	–	–	–	–	> 10	> 10	> 10	> 10	> 10	> 10	–	–	–
COc1ccc(-c2cc(-c3ccc(N(C)C)cc3)nc3cnc4ccccc4c23)cc1	2.3	1.72	2.98	1.95	1.98	1.86	91.3	–	–	–	–	–	–	1.3	1.2	42.4
COc1ccc(-c2cc(-c3ccc(OC)cc3)c3c(cnc4ccccc43)n2)cc1	> 10	> 10	> 10	> 10	> 10	> 10	–	–	–	–	–	–	–	–	–	–
COc1ccc(-c2cc(-c3ccccc3)nc3cnc4ccccc4c23)cc1	7.28	4.02	3.07	5.83	2.13	4.38	–	–	–	–	–	–	–	–	–	–
COc1cccc2c1C(=O)c1c(O)c3c(c(O)c1C2=O)C[C@@](O)(C(=O)CO)C[C@@H]3O[C@H]1C[C@H](N)[C@H](O)[C@H](C)O1 [DOXORUBICIN]	0.068	0.09	0.076	0.086	0.08	0.077	–	–	–	–	–	–	–	–	–	–
COc1ccc(-c2cc(-c3ccc(Br)cc3)nc3cnc4ccccc4c23)cc1	2.58	1.62	6.75	1.85	4.95	1.97	–	–	–	–	–	–	–	–	–	–
COc1ccc(-c2c(C)c(-c3ccccc3Br)nc3cnc4ccccc4c23)cc1	> 10	> 10	> 10	> 10	> 10	> 10	–	–	–	–	–	–	–	–	–	–
COc1ccc(-c2cc(-c3cccc4ccccc34)nc3cnc4ccccc4c23)cc1 [listing 1 of 2 here]	2.81	1.65	–	2.16	–	2.72	–	–	–	3.38	–	5.36	–	–	–	–
COc1ccc(-c2cc(-c3ccc(Cl)cc3)nc3cnc4ccccc4c23)cc1	2.94	1.7	1.53	2.17	1.69	4.82	3	–	–	–	–	–	–	–	–	–
CCCCCCn1cc(-c2cc(-c3ccc(OC)cc3)c3c(cnc4ccccc43)n2)c2ccccc21	> 10	> 10	> 10	> 10	> 10	> 10	–	–	–	–	–	–	–	–	–	–
COc1ccc(-c2cc(-c3ccccc3Br)nc3cnc4ccccc4c23)cc1	> 10	> 10	> 10	> 10	> 10	> 10	–	–	–	–	–	–	–	–	–	–
COc1ccc(-c2cc(-c3cccs3)nc3cnc4ccccc4c23)cc1	7.69	3.3	6.88	2	5.65	7.06	–	–	–	–	–	–	–	–	–	–
COc1ccc(-c2cc(-c3ccccc3Cl)nc3cnc4ccccc4c23)cc1	3.32	2.55	4.46	3	3.27	2.15	–	–	–	–	–	–	–	–	–	–
COc1ccc(-c2cc(-c3ccc4ccccc4c3)nc3cnc4ccccc4c23)cc1	> 10	> 10	> 10	> 10	> 10	> 10	–	–	–	–	–	–	–	–	–	–
COc1ccc(-c2cc(-c3ccc(OC)c4ccccc34)nc3cnc4ccccc4c23)cc1	> 10	> 10	> 10	> 10	> 10	> 10	–	–	–	–	–	–	–	–	–	–
COc1ccc(-c2cc(-c3ccccc3[N+](=O)[O-])nc3cnc4ccccc4c23)cc1	> 10	> 10	> 10	> 10	> 10	> 10	–	–	–	–	–	–	–	–	–	–
COc1ccc(-c2cc(-c3ccc(C(F)(F)F)cc3C(F)(F)F)nc3cnc4ccccc4c23)cc1	> 10	> 10	> 10	> 10	> 10	> 10	–	–	–	–	–	–	–	–	–	–
COc1ccc(-c2cc(-c3ccc(C(F)(F)F)cc3)nc3cnc4ccccc4c23)cc1	> 10	> 10	> 10	> 10	> 10	> 10	–	–	–	–	–	–	–	–	–	–
COc1ccc(-c2cc(-c3ccc([N+](=O)[O-])cc3)nc3cnc4ccccc4c23)cc1 [listing 2 of 2 here]	–	–	–	–	–	–	–	3.49	2.43	3.59	2.87	3.92	4.37	–	–	–
COc1ccc(-c2cc(-c3cccc4ccccc34)nc3cnc4ccccc4c23)cc1 [listing 2 of 2 here]	–	–	–	–	–	–	–	1.51	1.81	1.57	1.68	2.25	1.98	–	–	–
